Measured values reported in patent US6432959B1, “Inhibitors of farnesyl-protein transferase” (Schering Corporation, priority 1998, dated 2002).

Key:
[1] = target: T1, partially purified rat brain farnesyl protein transferase (FPT) (Rattus norvegicus, UniProt Q02293+Q04631); test: FPT IC50, in vitro enzyme assay (inhibition of Ras-CVLS farnesylation); assay type: biochemical; settings: inhibition of Ras-CVLS farnesylation by partially purified rat brain FPT; value is a range stated for a group of compounds
T1 construct: partially purified rat brain farnesyl protein transferase (FPT); from tissue; host or cells: rat brain
Experimental: 1. In vitro enzyme assays: FPT IC50 (inhibition of farnesyl protein transferase, in vitro enzyme assay) are determined by the methods disclosed in WO/10515 or WO95/10516.

In the case of CC(C)(C)NC(=O)N1CCN(Cc2ccccc2)C[C@@H]1C(=O)N(CCCn1ccnc1)Cc1ccccc1 [Example 28T, N1-(1,1-dimethylethyl)-N2-[3-(1H-imidazol-1-yl)propyl]-N2,4-bis(phenylmethyl)-1,2(R)-piperazinedicarboxamide], the melting point is reported as 57.8 °C and the IC50 [1] is reported as 0.00018 to 0.021 µM.
